The source of these data is US7659400B2, “Radiolabelled benzamide analogues, their synthesis and use in diagnostic imaging” (Washington University, priority 2003, dated 2010).

One may read the Ki as the dissociation constant of the complex between target and ligand, obtained from inhibition or displacement.

Several values for one entry are separate records, joined by “and”; a condition that tells them apart may be missing. Equal values may be shown once. Read-outs that look alike come from different tables or passages of the source.

In data set [1] the target is σ1 receptors (Cavia porcellus, UniProt Q60492).
σ1 receptors, sequence (Q60492 whole entry): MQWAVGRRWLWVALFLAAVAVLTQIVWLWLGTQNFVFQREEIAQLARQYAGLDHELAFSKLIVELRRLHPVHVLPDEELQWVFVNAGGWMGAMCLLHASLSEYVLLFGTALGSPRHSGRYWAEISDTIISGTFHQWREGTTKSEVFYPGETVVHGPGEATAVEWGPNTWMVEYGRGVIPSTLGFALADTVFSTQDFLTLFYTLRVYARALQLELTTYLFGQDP
Protocol: In these assays, the novel sigma ligands were dissolved in N,N-dimethylformamide (DMF), DMSO or ethanol, and then diluted in 50 mM Tris-HCl buffer containing 150 mM NaCl and 100 mM EDTA at pH 7.4 prior to performing the σ1 and σ2 receptor binding assays. […] The samples were harvested and filtered rapidly through a 96-well fiber glass filter plate (millipore, Billerica, Mass.) that had been presoaked with 100 μL of 50 mM Tris-HCl buffer at pH 8.0 for 1 h.
The Ki values were determine from Scatchard plots.
Data set [2] addresses T1, σ2 receptors (Rattus norvegicus, UniProt Q5U3Y7).
T1 construct: conducted using rat liver membrane homogenates; from tissue; host or cells: rat liver membrane homogenates
T1 sequence (Q5U3Y7 1-176): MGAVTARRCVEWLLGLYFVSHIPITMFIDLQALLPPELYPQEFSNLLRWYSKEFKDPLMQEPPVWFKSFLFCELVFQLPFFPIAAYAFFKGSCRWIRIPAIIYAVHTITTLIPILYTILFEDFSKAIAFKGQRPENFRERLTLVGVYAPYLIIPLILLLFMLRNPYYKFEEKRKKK
Briefly: σ2 receptor binding assay, [^3H]DTG in the presence of (+)-pentazocine, rat liver membrane homogenates. Particulars: for σ1:σ2 Ratio: ratio of Ki values. On the procedure: The incubation time was 120 min at room temperature. […] All other procedures were identical to those described for the σ1 receptor binding assay above.

Data set [3] deals with EMT-6 tumors. Briefly: Biodistribution of 18F-labeled ligands in mice bearing EMT-6 tumors. Type of data set: in vivo, female Balb/c mice. Particulars: for clearance from the blood (in words): mouse, in vivo. On the procedure: This example illustrates in vivo evaluation of compounds of the present teachings. All animal experiments were conducted in compliance with the Guidelines for the Care and Use of Research Animals established by Washington University's Animal Studies Committee. EMT-6 mouse mammary adenocarcinoma cells (5×10^5 cells in 100 uL of phosphate-buffered saline) were implanted subcutaneously in the scapular region of female Balb/c mice (˜2-month old and 17-22 g; Charles River Laboratories). […] Groups of at least 4 mice were used for each time point. […] After counting, the percentage of the injected dose per gram of tissue (%ID/g) was calculated. The tumor/organ ratios were calculated by dividing the %ID/g of the tumor by the %ID/g of each organ.

The mark [4] stands for this setting: 60 min (1 h) after i.v. injection.
The mark [5] stands for this setting: 120 min (2 h) after i.v. injection.

Consider “5-bromo-N-[4-(6,7-dimethoxy-3,4-dihydro-1H-isoquinolin-2-yl)-butyl]-2-(2-fluoro-ethoxy)-3-methoxy-benzamide [compound 3b]”, for which the Ki worked out at 15300 nM in data set [1] and 386 ± 93 nM in data set [2] (rat liver membranes, [^3H]DTG, mean ± SEM). The “σ1:σ2 Ratio” value in data set [2] was found to be 40.
For `COc1cc2c(cc1OC)CN(CCCCNC(=O)c1cc(Br)ccc1OCC[18F])CC2` [[^18F]3d], in data set [3] (5 min after i.v. injection), the “Biodistribution: blood” value turned out to be 3.57 ± 0.43 %ID/g, the “Biodistribution: bone” value was 2.90 ± 0.39 %ID/g, the “Biodistribution: brain” value is on record as 1.09 ± 0.11 %ID/g and the “Biodistribution: fat” value was 2.85 ± 0.47 %ID/g. In data set [3] (5 min after i.v. injection), the “Biodistribution: heart” value stood at 3.74 ± 0.37 %ID/g, the “Biodistribution: kidney” value turned out to be 42.94 ± 3.34 %ID/g, the “Biodistribution: liver” value is 32.60 ± 3.96 %ID/g and the “Biodistribution: lung” value was determined as 12.08 ± 1.98 %ID/g. In data set [3] (5 min after i.v. injection), the “Biodistribution: muscle” value amounted to 1.95 ± 0.19 %ID/g and the “Biodistribution: tumor (tumor uptake)” value came to 3.28 ± 0.41 %ID/g. In addition, in data set [3] (30 min after i.v. injection), the “Biodistribution: blood” value is reported as 2.81 ± 0.32 %ID/g, the “Biodistribution: bone” value is 1.17 ± 0.06 %ID/g, the “Biodistribution: brain” value worked out at 0.40 ± 0.03 %ID/g and the “Biodistribution: fat” value turned out to be 0.96 ± 0.13 %ID/g. Also, in data set [3] (30 min after i.v. injection), the “Biodistribution: heart” value is listed as 1.55 ± 0.11 %ID/g, the “Biodistribution: kidney” value stood at 17.55 ± 2.75 %ID/g, the “Biodistribution: liver” value was 13.12 ± 1.39 %ID/g and the “Biodistribution: lung” value was determined as 3.08 ± 0.23 %ID/g. Further, in data set [3] (30 min after i.v. injection), the “Biodistribution: muscle” value turned out to be 0.98 ± 0.18 %ID/g and the “Biodistribution: tumor (tumor uptake)” value turned out to be 2.59 ± 0.19 %ID/g. Also, in data set [3] (setting [4]), the “Biodistribution: tumor (tumor uptake)” value is 2.09 ± 0.28 %ID/g. In data set [3] (60 min after i.v. injection), the “Biodistribution: blood” value is on record as 1.69 ± 0.63 %ID/g, the “Biodistribution: bone” value came to 1.12 ± 0.16 %ID/g, the “Biodistribution: brain” value was found to be 0.32 ± 0.05 %ID/g and the “Biodistribution: fat” value was found to be 0.38 ± 0.05 %ID/g. Moreover, in data set [3] (60 min after i.v. injection), the “Biodistribution: heart” value came out at 1.04 ± 0.21 %ID/g, the “Biodistribution: kidney” value came to 6.92 ± 1.61 %ID/g, the “Biodistribution: liver” value amounted to 5.69 ± 0.54 %ID/g and the “Biodistribution: lung” value is given as 1.60 ± 0.27 %ID/g. The “Biodistribution: muscle” value in data set [3] (60 min after i.v. injection) is reported as 0.58 ± 0.11 %ID/g. The “Biodistribution: tumor (tumor uptake)” value in data set [3] (setting [5]) is 0.96 %ID/g and 0.96 ± 0.24 %ID/g. Besides, in data set [3] (120 min after i.v. injection), the “Biodistribution: blood” value was determined as 0.52 ± 0.10 %ID/g, the “Biodistribution: bone” value was 1.28 ± 0.28 %ID/g, the “Biodistribution: brain” value was 0.20 ± 0.03 %ID/g and the “Biodistribution: fat” value is given as 0.15 ± 0.06 %ID/g. Further, in data set [3] (120 min after i.v. injection), the “Biodistribution: heart” value was determined as 0.40 ± 0.07 %ID/g, the “Biodistribution: kidney” value came to 1.12 ± 0.16 %ID/g, the “Biodistribution: liver” value is 2.30 ± 0.33 %ID/g and the “Biodistribution: lung” value amounted to 0.51 ± 0.08 %ID/g. Besides, in data set [3] (120 min after i.v. injection), the “Biodistribution: muscle” value was found to be 0.28 ± 0.10 %ID/g. In addition, the “tumor:fat ratio” value in data set [3] (2 h after i.v. injection) is given as approximately 6. In addition, in data set [3], the “clearance from the blood (in words)” value was “cleared much more slowly from the blood than [^18F]3c”.
Consider `COc1cc2c(cc1OC)CN(CCCCNC(=O)c1cc(I)ccc1OCC[18F])CC2` [[^18F]3e], for which, in data set [3] (5 min after i.v. injection), the “Biodistribution: blood” value stood at 4.60 ± 0.44 %ID/g, the “Biodistribution: bone” value is 2.59 ± 0.28 %ID/g, the “Biodistribution: brain” value was 0.55 ± 0.04 %ID/g and the “Biodistribution: fat” value stood at 2.32 ± 0.46 %ID/g. In data set [3] (5 min after i.v. injection), the “Biodistribution: heart” value is reported as 3.22 ± 0.27 %ID/g, the “Biodistribution: kidney” value was determined as 36.07 ± 2.28 %ID/g, the “Biodistribution: liver” value turned out to be 37.26 ± 4.88 %ID/g and the “Biodistribution: lung” value came out at 9.71 ± 0.83 %ID/g. For the same compound, in data set [3] (5 min after i.v. injection), the “Biodistribution: muscle” value is listed as 1.52 ± 0.10 %ID/g and the “Biodistribution: tumor (tumor uptake)” value was determined as 2.54 ± 0.62 %ID/g. For the same compound, in data set [3] (30 min after i.v. injection), the “Biodistribution: blood” value turned out to be 4.30 ± 0.59 %ID/g, the “Biodistribution: bone” value is listed as 1.31 ± 0.14 %ID/g, the “Biodistribution: brain” value is 0.44 ± 0.04 %ID/g and the “Biodistribution: fat” value worked out at 1.04 ± 0.06 %ID/g. In data set [3] (30 min after i.v. injection), the “Biodistribution: heart” value came to 2.37 ± 0.29 %ID/g, the “Biodistribution: kidney” value was 17.43 ± 1.95 %ID/g, the “Biodistribution: liver” value is 17.35 ± 2.72 %ID/g and the “Biodistribution: lung” value is on record as 4.07 ± 0.46 %ID/g. Moreover, in data set [3] (30 min after i.v. injection), the “Biodistribution: muscle” value came out at 1.12 ± 0.05 %ID/g and the “Biodistribution: tumor (tumor uptake)” value turned out to be 2.81 ± 0.62 %ID/g. Also, in data set [3] (setting [4]), the “Biodistribution: tumor (tumor uptake)” value was determined as 2.72 ± 0.13 %ID/g. For the same compound, in data set [3] (60 min after i.v. injection), the “Biodistribution: blood” value was found to be 3.39 ± 0.29 %ID/g, the “Biodistribution: bone” value is 0.99 ± 0.07 %ID/g, the “Biodistribution: brain” value worked out at 0.36 ± 0.02 %ID/g and the “Biodistribution: fat” value came out at 0.62 ± 0.10 %ID/g. Besides, in data set [3] (60 min after i.v. injection), the “Biodistribution: heart” value was determined as 1.61 ± 0.11 %ID/g, the “Biodistribution: kidney” value is 9.36 ± 0.90 %ID/g, the “Biodistribution: liver” value is 7.31 ± 0.98 %ID/g and the “Biodistribution: lung” value stood at 2.34 ± 0.12 %ID/g. Also, in data set [3] (60 min after i.v. injection), the “Biodistribution: muscle” value was 0.83 ± 0.04 %ID/g. Besides, the “Biodistribution: tumor (tumor uptake)” value in data set [3] (setting [5]) was 1.92 %ID/g and 1.92 ± 0.10 %ID/g. For the same compound, in data set [3] (120 min after i.v. injection), the “Biodistribution: blood” value worked out at 1.92 ± 0.59 %ID/g, the “Biodistribution: bone” value was 1.67 ± 0.27 %ID/g, the “Biodistribution: brain” value is reported as 0.37 ± 0.06 %ID/g and the “Biodistribution: fat” value turned out to be 0.44 ± 0.08 %ID/g. For the same compound, in data set [3] (120 min after i.v. injection), the “Biodistribution: heart” value was determined as 1.00 ± 0.23 %ID/g, the “Biodistribution: kidney” value was found to be 3.92 ± 0.98 %ID/g, the “Biodistribution: liver” value amounted to 4.25 ± 1.56 %ID/g and the “Biodistribution: lung” value was determined as 1.36 ± 0.24 %ID/g. Besides, the “Biodistribution: muscle” value in data set [3] (120 min after i.v. injection) was found to be 0.60 ± 0.11 %ID/g. The “clearance from the blood (in words)” value in data set [3] was “cleared much more slowly from the blood than [^18F]3c”.
For `COc1cc2c(cc1OC)CN(CCNC(=O)c1cc(C)ccc1OCCF)CC2` [compound 3a, [N-(6,7-dimethoxy-3,4-dihydro-1H-isoquinolin-2-yl)-ethyl]-2-(2-fluoro-ethoxy)-5-methyl benzamide], the Ki came out at 22800 nM in data set [1] and 102 ± 4 nM in data set [2]. For the same compound, the “σ1:σ2 Ratio” value in data set [2] worked out at 222.
For `COc1cc2c(cc1OC)CN(CCCCNC(=O)c1cc(Br)ccc1OCCF)CC2` [compound 3d, N-[4-(6,7-dimethoxy-3,4-dihydro-1H-isoquinolin-2-yl)-butyl]-2-(2-fluoro-ethoxy)-5-bromo-benzamide], in that order: 1080 nM, 0.65 ± 0.22 nM and 1,656.
For the compound `COc1cc2c(cc1OC)CN(CCCCNC(=O)c1cc(I)ccc1OCCF)CC2` [compound 3e, N-[4-(6,7-dimethoxy-3,4-dihydro-1H-isoquinolin-2-yl)-butyl]-2-(2-fluoro-ethoxy)-5-iodo-benzamide], the Ki in data set [1] worked out at 1300 nM.
For `COc1cc2c(cc1OC)CN(CCCCNC(=O)c1cc(I)cc(OC)c1OCCF)CC2` [compound 3f], the Ki in data set [1] worked out at 2150 nM; in data set [2], 0.26 ± 0.07 nM. Besides, the “σ1:σ2 Ratio” value in data set [2] is recorded as 8,190.
